Structures can show the parent of a compound that is named as a salt. Residues, ends and D or L forms follow the SMILES beside them.
Key:
human uPA = human uPA (Homo sapiens, UniProt P00749); conditions: read-out: Km for human uPA; chromogenic substrate; cited from earlier work
plasmin [1] = molecular target: T1, plasmin (Homo sapiens, UniProt P00747); conditions: chromogenic substrate; cited from earlier work
T1 construct: After the cleavage, plasmin is an active two-chain disulfide linked molecule

CIA-sensitive mice [2] = test: Aprotinin treatment of CIA-sensitive mice, arthritis induced by monoclonal antibodies C1 and M2139; assay type: in vivo; conditions: 0.5 mL aprotinin w/o emulsion i.p. every 72 hours; monoclonal antibody induction
Source text: (§1) To test potential drug candidates, arthritis is induced in CIA-sensitive mice either by immunization with collagen type II (CIA) or, alternatively, by use of monoclonal antibodies.
Using monoclonal antibodies to induce CIA has an advantage in that it allows for better control of the induction.
(§2) The present example describes treatment of CIA-sensitive mice with aprotinin (Trasylol; Bayer). Trasylol is an inhibitor of plasmin and thereby, according to the invention, a candidate drug for treating arthritis.
(§3) Since aprotinin has a rather short half life in mice, a sustained release system for Trasylol is used. An exemplary system based on water/oil (w/o) emulsions where aprotinin is incorporated is described in detail by Bjerregaard et al. (Journal of Controlled release 2001; 71:87-98).
The mice are injected intraperitoneally with 0.5 mL aprotinin emulsion, containing 30% w/w disperse phase with 87 mg aprotinin per ml aqueous phase (corresponding to a dose of approximately 85,000 KIU (“kallikrein-inactivator units”) aprotinin, using a Hamilton syringe 21 G needle. (It is also possible to carry out controlled administration of aprotinin via an osmotic pump.) The injection is repeated every 72 hours.
CIA induction using monoclonal antibodies. […] The development of arthritis is evaluated with the clinical grading system described in Example 1. […]

[3] = cited from earlier work
CIA-sensitive mice [4] = test: Aprotinin treatment of CIA-sensitive mice, arthritis induced by rat collagen II; assay type: in vivo; conditions: 0.5 ml aprotinin w/o emulsion i.p. every 72 hr; collagen II induction
Source text: as §1, §2, §3
CIA induction using Collagen-II. Collagen-induced arthritis (CIA) is induced in mice with Rat collagen II, which is prepared from the Swarm chondrosarcoma after pepsin digestion, as previously described (Andersson and Holmdahl, Eur J Immunol 1990;20:1061-1066). Collagen II is dissolved at a concentration of 2 mg/ml in 0.1 M acetic acid and stored at 4° C. Arthritis is induced by intrademal injection at the basis of the tail with […] of […] rat collagen II emulsified with an equal volume of complete Freund's adjuvant (CFA, with Mycobacterium butyricum; Difco, Detroit, Mich.). […]

plasmin [5] = molecular target: T1, plasmin; conditions: cited from earlier work
[6] = test system: plasminogen deficient mice; test: Restoration of plasminogen in plasminogen deficient mice, arthritis induced by collagen II monoclonal antibody cocktail; assay type: in vivo
Procedure: Induction of arthritis using monoclonal antibodies directed against collagen type II. A battery of monoclonal antibodies against collagen type II were produced by standard procedures. Induction of arthritis was performed by intravenous injection of a cocktail of two antibodies denoted C1 and M2139 at day 0. Five days later (day 5), lipopolysacchride was injected intraperitoneally to enhance the immune response. The development of arthritis was evaluated with a previously described clinical grading system.
Clinical grading evaluation of arthritis. The development of arthritis was tracked using a scoring system which defines one inflamed toe or knuckle as 1 point and one inflamed wrist or ankle as […], resulting in a score of 0-15 points for each paw and 0-60 points per mouse. Deformed or swollen without redness is not included in this system.
Induction of arthritis in plasminogen deficient mice by restoration of plasminogen. 100 μl of human plasminogen, at a concentration of 10 mg/ml, was injected intravenously into the plasminogen deficient mice every 24 hours in order to restore the serum plasminogen level. 12 hours after the first injection of plasminogen, three groups of mice, plg-wildtype, plg-heterozygous, plg-deficient were again injected with plasminogen before arthritis was induced using the Collagen II monoclonal antibody cocktails as described above. The development of arthritis was followed by the clinical scoring system.

In the case of “L-pyroglutamyl-glycyl-L-arginine-p-nitroaniline hydrochloride [S-2444]”, the Km (human uPA) is given as 90 µM.

For CC(C)C[C@H](NC(=O)[C@H](N)C(C)C)C(=O)N[C@@H](CCCCN)C(=O)Nc1ccc([N+](=O)[O-])cc1 [S-2251, H-D-Valyl-L-leucyl-L-lysine-p-nitroaniline dihydrochloride] (HELM PEPTIDE1{[dV].L.K.[O=[N+]([O-])c1ccc(N[*:1])cc1]}$$$$V2.0), the Km (plasmin [1]) is given as 300 µM.

In the case of aprotinin, the “incidence of the CIA vs control mice” value (CIA-sensitive mice [2]) is listed as “lower”, the “severity of the CIA vs control mice” value (CIA-sensitive mice [2]) is listed as “lower” and the “half life in mice” value [3] is listed as “rather short”. The “incidence of the CIA vs control mice” value (CIA-sensitive mice [4]) was “lower” and the “severity of the CIA vs control mice” value (CIA-sensitive mice [4]) was “lower”.

B1: α2AP: single-chain glycoprotein, physiological inhibitor of plasmin (protein, UniProt P08697 40-491, looked up)
Alpha-2-antiplasmin: NQEQVSPLTLLKLGNQEPGGQTALKSPPGVCSRDPTPEQTHRLARAMMAFTADLFSLVAQTSTCPNLILSPLSVALALSHLALGAQNHTLQRLQQVLHAGSGPCLPHLLSRLCQDLGPGAFRLAARMYLQKGFPIKEDFLEQSEQLFGAKPVSLTGKQEDDLANINQWVKEATEGKIQEFLSGLPEDTVLLLLNAIHFQGFWRNKFDPSLTQRDSFHLDEQFTVPVEMMQARTYPLRWFLLEQPEIQVAHFPFKNNMSFVVLVPTHFEWNVSQVLANLSWDTLHPPLVWERPTKVRLPKLYLKHQMDLVATLSQLGLQELFQAPDLRGISEQSLVVSGVQHQSTLELSEVGVEAAAATSIAMSRMSLSSFSVNRPFLFFIFEDTTGLPLFVGSVRNPNPSAPRELKEQQDSPGNKDFLQSLKGFPRGDKLFGPDLKLVPPMEEDYPQFGSPK
For B1, the “second-order rate constant of inhibition of plasmin” value (plasmin [5]) is given as “above 10^7 M^−1s^−1”.

B2: Human plasminogen: human plasminogen injected intravenously into plasminogen deficient mice to restore the serum plasminogen level (protein)
chain: MEHKEVVLLLLLFLKSGQGEPLDDYVNTQGASLFSVTKKQLGAGSIEECAAKCEEDEEFTCRAFQYHSKEQQCVIMAENRKSSIIIRMRDVVLFEKKVYLSECKTGNGKNYRGTMSKTKNGITCQKWSSTSPHRPRFSPATHPSEGLEENYCRNPDNDPQGPWCYTTDPEKRYDYCDILECEEECMHCSGENYDGKISKTMSGLECQAWDSQSPHAHGYIPSKFPNKNLKKNYCRNPDRELRPWCFTTDPNKRWELCDIPRCTTPPPSSGPTYQCLKGTGENYRGNVAVTVSGHTCQHWSAQTPHTHNRTPENFPCKNLDENYCRNPDGKRAPWCHTTNSQVRWEYCKIPSCDSSPVSTEQLAPTAPPELTPVVQDCYHGDGQSYRGTSSTTTTGKKCQSWSSMTPHRHQKTPENYPNAGLTMNYCRNPDADKGPWCFTTDPSVRWEYCNLKKCSGTEASVVAPPPVVLLPDVETPSEEDCMFGNGKGYRGKRATTVTGTPCQDWAAQEPHRHSIFTPETNPRAGLEKNYCRNPDGDVGGPWCYTTNPRKLYDYCDVPQCAAPSFDCGKPQVEPKKCPGRVVGGCVAHPHSWPWQVSLRTRFGMHFCGGTLISPEWVLTAAHCLEKSPRPSSYKVILGAHQEVNLEPHVQEIEVSRLFLEPTRKDIALLKLSSPAVITDKVIPACLPSPNYVVADRTECFITGWGETQGTFGAGLLKEAQLPVIENKVCNRYEFLNGRVQSTELCAGHLAGGTDSCQGDSGGPLVCFEKDKYILQGVTSWGLGCARPNKPGVYVRVSRFVTWIEGVMRNN
For B2, the “plasminogen deficient mice that developed joint inflammation” value ([6]; five days after the cocktail injection, human plasminogen injected 12 hours before challenge) was 3 out of 4, the Arthritic score ([6]; plg −/− mice, human plasminogen i.v. every 24 hours, anti-collagen II monoclonal antibody cocktail, clinical score 0-60 points per mouse) was 6.7 ± 2.9 and the “Incidence of RA” value ([6]; plg −/− mice, human plasminogen i.v. every 24 hours, anti-collagen II monoclonal antibody cocktail, mice affected/total) was 3/4.
